In patent US9856304B2, “Peptide and application thereof” (Saitama Medical University, priority 2013, dated 2018):

Test system: human iPS cells (253G1 cells)
Experiment: Differentiation induction of human iPS cells into pancreatic hormone-producing cells (2), quantitative RT-PCR
Type: cell-based
Details: 1 nM betagenin in steps (A2) to (D2), vs ACN control, GAPDH corrected
Experimental: As human iPS cells, used were 253G1 cells purchased from the cell bank at RIKEN. The cells were cultured/maintained in an ES cell culture medium (DMEM/ham F12, 20% KSR, nonessential amino acid, 2 mM L-glutamine, 0.1 mM 2-mercaptoethanol, 5.2 mM NaOH) with added 4 ng/mL FGF-2 (Global Stem) and penicillin/streptomycin (Nacalai Tesque, Inc.) along with SNL76/7 cells (DS Pharma Biomedical) treated with mitomycin-C. CTK (0.25% trypsin, 1 mg/mL Collagenase IV, 20% KSR, 1 mM CaCl2 in PBS) was used for cell detachment, and diluted at a ratio of 1:3 to 1:4 to perform passage culture.
The cells were detached with trypsin-EDTA 3 days before the start of differentiation induction, and plated at a cell density of 6.3×10^4 cells/cm2, and cultured for 1 day in an ES cell culture medium with added 10 μM Y-27632 (Wako), 4 ng/mL FGF-2 and penicillin/streptomycin along with STO cells treated with mitomycin-C. Subsequently, they were further cultured for 2 days in an ES cell culture medium with added 4 ng/mL FGF-2 and penicillin/streptomycin.
On the first day of the start of differentiation induction, the culture medium was replaced with a RPMI1640 culture medium (Nacalai Tesque, Inc.) with added 2% (v/v) FBS, 100 ng/mL activin A (SBI), 3 μM CHIR99021 (Axon Medchem) and 1 nM betagenin, and cultured for 1 day (Step (A2)). […]
The gene expressions of insulin, glucagon, somatostatin were confirmed by quantitative RT-PCR for cells (n=3 for each of the betagenin addition group and the control group) obtained from 253G1 cells via the above steps (A2) to (D2). Specifically, total RNA was first extracted from the cells using a SV Total RNA Isolation System (Promega), and reverse transcription reactions were performed with BioScript™ transcriptase (Bioline), and then quantitative PCR analysis was performed with LightCycler™ (Roche) using SYBR™ Green PCR Master Mix (Applied Biosystems). Note that the gene expression of GAPDH was determined by quantitative RT-PCR as an internal control. […]

betagenin: chemically synthesized peptide of SEQ ID NO: 1, fragment of human TM4SF20 from Position 170 to Position 229 (WRASSFHFDSEENKHRLIHFSVFLGLLLVGILEVLFGLSQIVIGFLGCLCGVSKRRSQIV; Peptide Sequence betagenin; listed as Homo sapiens)
increased: amount of expression of insulin (relative) (first day taken as 1, FIG. 6) | amount of expression of glucagon (relative) (first day taken as 1, FIG. 7) | amount of expression of somatostatin (relative) (first day taken as 1, FIG. 8)
